Non-standard residues stand in square brackets, D forms with d. Residues, ends and D or L forms follow the SMILES beside them. *: point of attachment. Boc = CC(C)(C)OC(=O)*
Columns and labels:
[1] = target: bovine and human pancreatic trypsin; experiment: Potency: determination of inhibitor constant Ki against trypsin (S-2222 substrate, Dixon plot); type: biochemical; settings: 37° C., TBS pH 7.4, 15 min preincubation, read-out: Ki For Peptide Aldehydes Against Trypsin
Experimental: The potency and specificity of the compounds of the present invention are determined by in vitro assay methods well known in the art. […] Specifically, the inhibitor constant, Ki, of the compounds can be determined by the method of Dixon, Biochem. J. 55:170 (1953). The specificity is assessed by determination of the concentration, IC50, of compound required to give 50% inhibition of the enzymatic activity of the coagulation enzymes, kallikrein, factor XIa, factor VIIa, factor Xa, thrombin; the fibrinolysis enzymes, plasmin, tissue plasminogen activator (tPA), and urokinase (UK), and the anticoagulation enzyme, protein C. Specificity is found when the concentration of compound giving 50% inhibition of trypsin is low relative to the concentration required to give like inhibition of the other enzymes.
Enzyme activity was determined using as substrate S-2222 [N-benzoyl-L-isoleucyl-L-glutamyl-glycyl-L-arginine-p-nitroanilide hydrochloride where glutamyl side chain is 50% carboxylic acid and 50% methyl ester], purchased from Kabi Diagnostica. The substrate was made up in deionized water prior to use.
A 96-well microtiter plate was prepared for use in the assay by incubating each well with 300 μL of 1% bovine serum albumin (in deionized water) for 30 minutes at 37° C., and washing three times with deionized water.
To each well was added 50 μL TBS (0.1M Tris, 0.14M NaCl, pH 7.4), 50 μL 2.5 nM trypsin and 50 μL peptide aldehyde in TBS or TBS alone. After incubating for 15 minutes at 37° C., 50 μL of S-2222 (at 37° C.) at a specified concentration was added to each well. After mixing, the rate of substramte turnover at 37° C. was measured for 30 minutes at 405 nm (generation of p-nitroaniline). The initial S-2222 concentrations in the assay mixture were 0.45, 0.23, 0.11, 0.056, and 0.028 mM.
Ki was determined graphically using a Dixon plot, as described in Dixon, Biochem. J. 55:170 (1953).

human kallekrein = target: T1, human kallekrein (Homo sapiens, UniProt P03952); experiment: Kallikrein assay (S-2302 substrate); type: biochemical; settings: for IC50: 30 min preincubation, room temperature, tested 0.025-25 μM, Inact. = no inhibition at highest concentration; for Calculated % Selectivity Kallikrein: [IC50 for Trypsin/IC50 for other enzyme]×100, lower = more trypsin selective
T1 construct: 50 μL of 4 to 9 nM human kallekrein
Experimental: (§1) The specificity of the peptide aldehydes (8 through 12) was determined in vitro by measurement of their IC50 against other enzymes involved in hemostasis. A specific concentration of enzyme and its substrate were challenged with varying concentrations of inhibitor. […] Specific assay procedures used are presented below.
(§2) 96-well microtiter plates were prepared for use in these assays by incubating each well with 300 μL 1% bovine serum albumin (in deionized water) for 30 minutes at 37° C., then washing three times with deionized water.
(§3) The substrate was made up in deionized water prior to use.

human Factor XIa = target: T2, human Factor XIa (Homo sapiens, UniProt P03951); experiment: Factor XIa assay (S-2366 substrate); type: biochemical; settings: for IC50: 30 min preincubation, room temperature, tested 0.025-25 μM, Inact. = no inhibition at highest concentration; for Calculated % Selectivity XIa: [IC50 for Trypsin/IC50 for other enzyme]×100, lower = more trypsin selective
T2 construct: 50 μL of 5 nM human Factor XIa
Experimental: as §1, §2, §3

Factor VIIa:rTF complex = target: T3, Factor VIIa:rTF complex (Homo sapiens, UniProt P08709); experiment: Factor VIIa assay (S-2288 substrate); type: biochemical; settings: for IC50 / IC50 VIIA: 30 min preincubation, room temperature, tested 0.025-25 μM, Inact. = no inhibition at highest concentration; for Calculated % Selectivity VIIa: [IC50 for Trypsin/IC50 for other enzyme]×100, lower = more trypsin selective
T3 construct: 2.5 ml 400 nMhuman Factor VIIa
Experimental: (§4) The specificity of the peptide aldehydes (8 through 12) was determined in vitro by measurement of their IC50 against other enzymes involved in hemostasis. A specific concentration of enzyme and its substrate were challenged with varying concentrations of inhibitor. IC50 is that concentration of inhibitor giving 50% inhibition of substrate turnover, under the assay conditions. Specific assay procedures used are presented below.
as §2
Enzyme activity was determined using as substrate, S-2288 [D-isoleucyl-L-prolyl-L-arginine-p-nitroanilide dihydrochloride], purchased from Kabi Diagnostica. The substrate was made up in deionized water prior to use.
Both solutions were then incubated for 30 minutes at room temperature before use in the assay.
The assay was run by combining in appropriate wells 50 μL inhibitor in TBS or TBS alone and 100 μL of Factor VIIa:rTF complex or background control, incubating this mixture for 30 minutes at room temperature, adding 50 μL of 2 mM S-2288, incubating for an additional 30 to 60 minutes at room temperature, then reading the absorbance of the wells at 405 nm on a microtiter plate reader set with background substraction at 650 nm.

human Factor Xa = target: T4, human Factor Xa (Homo sapiens, UniProt P00742); experiment: Factor Xa assay (Pefachrome Xa substrate); type: biochemical; settings: for Calculated % Selectivity Xa: [IC50 for Trypsin/IC50 for other enzyme]×100, lower = more trypsin selective
T4 construct: 50 μL 30 nM human Factor Xa
Experimental: as §1, §2
Enzyme activity was determined using as substrate, Pefachrome Xa [N-methoxycarbonyl-D-cyclohexylalanyl-L-glycyl-L-arginine p-niroanilide acetate], purchased from Centerchem, Inc. The substrate was made up in deionized water prior to use.

bovine thrombin = target: T5, bovine thrombin (Bos taurus, UniProt P00735); experiment: Thrombin assay (S-2238 substrate); type: biochemical; settings: for Calculated % Selectivity Thrombin: [IC50 for Trypsin/IC50 for other enzyme]×100, lower = more trypsin selective
T5 construct: 50 μL 20 nM bovine thrombin
Experimental: as §4, §2
Enzyme activity was determined using as substrate, S-2238 [D-phenylalanyl-L-pipecolyl-L-arginine-p-nitroanilide dihydrochloride], purchased from Kabi Diagnostica. The substrate was made up in deionized water prior to use.
(§5) The assay was run by combining in appropriate wells 50 μL TBS and 50 μL inhibitor in TBS or TBS alone and 50 μL 20 nM bovine thrombin (or TBS as background control), incubating this mixture for 30 minutes at room temperature, adding 50 μL 1 mM S-2238, incubating for an additional 30 minutes at room temperature, then reading the absorbance of the wells at 405 nm on a microtiter plate reader set with background substraction at 650 nm.

[2] = target: T6, Activated human Protein C (Homo sapiens, UniProt P04070); experiment: Protein C assay (Pefachrome PC substrate); type: biochemical; settings: for Calculated % Selectivity Protein C: [IC50 for Trypsin/IC50 for other enzyme]×100, lower = more trypsin selective
T6 construct: from tissue
Experimental: as §1, §2
Enzyme activity was determined using as substrate, Pefachrome PC [δ-carbobenzoloxy-D-lysyl-L-prolyl-L-arginine-p-nitroanilide], purchased from Centerchem, Inc. The substrate was made up in deionized water prior to use. Protac used to activate Protein C was obtained from American Diagnostics.

[3] = target: recombinant tissue plasminogen activator (Homo sapiens, UniProt P00750); experiment: Tissue plasminogen activator assay (S-2288 substrate); type: biochemical; settings: for IC50 tPA / IC50: 30 min preincubation, room temperature, tested 0.025-25 μM, Inact. = no inhibition at highest concentration; for Calculated % Selectivity tPA: [IC50 for Trypsin/IC50 for other enzyme]×100, lower = more trypsin selective
Experimental: as §1, §2, §3

human urokinase = target: T7, human urokinase (Homo sapiens, UniProt P00749); experiment: Urokinase assay (S-2444 substrate); type: biochemical; settings: for Calculated % Selectivity UK: [IC50 for Trypsin/IC50 for other enzyme]×100, lower = more trypsin selective
T7 construct: 50 μL of 270 U/mL human urokinase
Experimental: as §4, §2
Enzyme activity was determined using as substrate S-2444 [L-pyroglutamyl-L-glycyl-L-arginine-p-nitroanilide hydrochloride], purchased from Kabi Diagnostica. The substrate was made up in deionized water prior to use.
as §5, with “μL” for “μL TBS and 50 μL”, “of 270 U/mL human urokinase” for “20 nM bovine thrombin”, “control) and 50 μL TBS,” for “control),”, “S-2444,” for “S-2238,”

bovine trypsin = target: T8, bovine trypsin (Bos taurus, UniProt P00760); experiment: Trypsin assay, IC50 (S-2222 substrate); type: biochemical; settings: for IC50: 30 min preincubation, room temperature, tested 0.025-25 μM; for Calculated % Selectivity Trypsin: trypsin relative to itself (reference, 100 by definition)
T8 sequence (P00760 24-246): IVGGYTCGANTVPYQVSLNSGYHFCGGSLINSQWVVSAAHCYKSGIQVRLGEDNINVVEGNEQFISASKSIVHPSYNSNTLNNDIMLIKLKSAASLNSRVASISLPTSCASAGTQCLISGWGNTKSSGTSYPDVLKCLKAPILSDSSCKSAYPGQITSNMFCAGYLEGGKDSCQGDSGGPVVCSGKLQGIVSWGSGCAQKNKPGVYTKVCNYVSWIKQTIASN
Experimental: as §1, §2, §3

plasmin = plasmin (Homo sapiens, UniProt P00747); experiment: Plasmin assay (S-2251 substrate); type: biochemical; design: 50 μL 25 nM human plasmin; settings: for IC50: 30 min preincubation, room temperature, tested 0.025-25 μM, Inact. = no inhibition at highest concentration; for Calculated % Selectivity Plasmin: [IC50 for Trypsin/IC50 for other enzyme]×100, lower = more trypsin selective
Experimental: as §1, §2, §3

[4] = tested on: acute pancreatitis induced in animal models; settings: literature reports; cited from earlier work
[5] = 30 min preincubation, room temperature, tested 0.025-25 μM, Inact. = no inhibition at highest concentration

T6 sequence (P04070 212-461 limits assumed): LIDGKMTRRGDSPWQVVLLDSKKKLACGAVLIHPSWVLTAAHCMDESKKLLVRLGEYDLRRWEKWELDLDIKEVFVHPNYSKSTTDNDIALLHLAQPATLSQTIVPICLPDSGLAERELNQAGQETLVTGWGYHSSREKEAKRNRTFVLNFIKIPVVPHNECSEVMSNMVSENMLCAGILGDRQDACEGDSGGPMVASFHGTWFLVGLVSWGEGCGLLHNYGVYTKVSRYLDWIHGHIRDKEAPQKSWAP
T6 sequence (P04070 43-197 partner limits assumed): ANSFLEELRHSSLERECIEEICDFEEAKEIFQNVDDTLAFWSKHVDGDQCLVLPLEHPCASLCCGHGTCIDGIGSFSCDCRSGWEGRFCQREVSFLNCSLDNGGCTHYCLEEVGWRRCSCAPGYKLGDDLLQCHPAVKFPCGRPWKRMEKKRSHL
T1 sequence (P03952 391-638 limits assumed): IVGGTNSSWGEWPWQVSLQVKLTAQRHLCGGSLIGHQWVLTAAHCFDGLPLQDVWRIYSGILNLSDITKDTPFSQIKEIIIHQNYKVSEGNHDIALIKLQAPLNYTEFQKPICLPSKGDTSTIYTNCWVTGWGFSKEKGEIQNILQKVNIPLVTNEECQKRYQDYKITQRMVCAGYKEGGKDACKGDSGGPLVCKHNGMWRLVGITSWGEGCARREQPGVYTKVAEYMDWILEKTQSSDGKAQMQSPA
T1 sequence (P03952 20-390 partner limits assumed): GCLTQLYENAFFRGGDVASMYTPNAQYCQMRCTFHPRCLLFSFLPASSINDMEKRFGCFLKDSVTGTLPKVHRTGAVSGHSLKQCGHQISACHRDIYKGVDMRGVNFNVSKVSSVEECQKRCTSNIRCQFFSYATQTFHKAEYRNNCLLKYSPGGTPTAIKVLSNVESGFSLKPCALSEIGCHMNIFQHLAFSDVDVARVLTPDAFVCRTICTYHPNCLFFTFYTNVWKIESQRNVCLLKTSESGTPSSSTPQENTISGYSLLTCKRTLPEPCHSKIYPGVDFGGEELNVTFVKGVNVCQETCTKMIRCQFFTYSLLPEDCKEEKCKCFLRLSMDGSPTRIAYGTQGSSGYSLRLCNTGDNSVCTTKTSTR
Chain of recombinant tissue plasminogen activator (P00750 36-562): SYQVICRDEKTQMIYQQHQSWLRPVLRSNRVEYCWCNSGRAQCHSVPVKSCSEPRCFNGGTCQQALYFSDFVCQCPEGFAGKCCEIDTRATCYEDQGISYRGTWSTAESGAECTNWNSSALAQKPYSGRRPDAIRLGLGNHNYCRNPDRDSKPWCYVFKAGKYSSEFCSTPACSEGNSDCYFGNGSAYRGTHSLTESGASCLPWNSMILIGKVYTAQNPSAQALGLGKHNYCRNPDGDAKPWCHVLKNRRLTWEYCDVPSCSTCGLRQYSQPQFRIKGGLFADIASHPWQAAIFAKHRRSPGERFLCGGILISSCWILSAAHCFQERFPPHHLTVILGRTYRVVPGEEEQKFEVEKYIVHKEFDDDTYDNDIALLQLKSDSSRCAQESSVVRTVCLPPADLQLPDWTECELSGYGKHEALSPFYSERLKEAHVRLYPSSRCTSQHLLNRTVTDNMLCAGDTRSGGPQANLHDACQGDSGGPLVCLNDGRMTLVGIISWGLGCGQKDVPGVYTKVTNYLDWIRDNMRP
T3 sequence (P08709 213-466 limits assumed): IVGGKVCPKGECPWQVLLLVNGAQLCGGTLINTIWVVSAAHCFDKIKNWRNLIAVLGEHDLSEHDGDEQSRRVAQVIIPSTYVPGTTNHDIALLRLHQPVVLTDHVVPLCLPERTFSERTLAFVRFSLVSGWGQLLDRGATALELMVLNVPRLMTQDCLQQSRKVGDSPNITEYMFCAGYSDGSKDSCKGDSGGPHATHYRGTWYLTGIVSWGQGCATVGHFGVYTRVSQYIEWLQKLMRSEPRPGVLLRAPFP
T3 sequence (P08709 61-212 partner limits assumed): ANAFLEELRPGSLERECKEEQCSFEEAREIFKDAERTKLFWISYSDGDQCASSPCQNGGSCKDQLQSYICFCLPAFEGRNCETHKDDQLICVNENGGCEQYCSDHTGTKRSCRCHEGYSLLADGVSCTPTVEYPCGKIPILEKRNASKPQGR
T3 sequence (P13726 33-295 partner): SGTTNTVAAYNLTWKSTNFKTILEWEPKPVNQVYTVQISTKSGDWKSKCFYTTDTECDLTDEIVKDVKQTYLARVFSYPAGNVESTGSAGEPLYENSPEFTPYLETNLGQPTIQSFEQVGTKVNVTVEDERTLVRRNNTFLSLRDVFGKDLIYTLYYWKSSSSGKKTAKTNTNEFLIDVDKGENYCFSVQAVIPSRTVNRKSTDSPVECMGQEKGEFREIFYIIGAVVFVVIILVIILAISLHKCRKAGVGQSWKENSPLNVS
T4 sequence (P00742 235-488 limits assumed): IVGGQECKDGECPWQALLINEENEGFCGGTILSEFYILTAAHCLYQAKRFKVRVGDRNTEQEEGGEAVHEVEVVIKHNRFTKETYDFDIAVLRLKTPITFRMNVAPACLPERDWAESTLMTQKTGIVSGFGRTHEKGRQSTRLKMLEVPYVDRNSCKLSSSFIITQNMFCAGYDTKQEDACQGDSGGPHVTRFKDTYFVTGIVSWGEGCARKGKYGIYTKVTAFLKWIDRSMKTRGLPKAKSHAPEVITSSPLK
T4 sequence (P00742 41-179 partner limits assumed): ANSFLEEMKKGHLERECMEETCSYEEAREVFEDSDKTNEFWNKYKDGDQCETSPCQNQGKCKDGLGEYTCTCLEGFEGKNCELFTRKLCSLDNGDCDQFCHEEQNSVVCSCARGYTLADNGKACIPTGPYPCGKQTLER
Chain of plasmin (P00747 581-810 limits assumed): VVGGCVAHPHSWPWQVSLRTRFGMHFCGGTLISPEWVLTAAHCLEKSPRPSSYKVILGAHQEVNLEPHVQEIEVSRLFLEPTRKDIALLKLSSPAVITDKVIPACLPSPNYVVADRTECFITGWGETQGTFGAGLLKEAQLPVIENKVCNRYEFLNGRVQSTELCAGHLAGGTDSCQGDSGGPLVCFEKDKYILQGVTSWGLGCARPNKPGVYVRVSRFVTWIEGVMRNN
Chain of plasmin (P00747 97-580 partner limits assumed): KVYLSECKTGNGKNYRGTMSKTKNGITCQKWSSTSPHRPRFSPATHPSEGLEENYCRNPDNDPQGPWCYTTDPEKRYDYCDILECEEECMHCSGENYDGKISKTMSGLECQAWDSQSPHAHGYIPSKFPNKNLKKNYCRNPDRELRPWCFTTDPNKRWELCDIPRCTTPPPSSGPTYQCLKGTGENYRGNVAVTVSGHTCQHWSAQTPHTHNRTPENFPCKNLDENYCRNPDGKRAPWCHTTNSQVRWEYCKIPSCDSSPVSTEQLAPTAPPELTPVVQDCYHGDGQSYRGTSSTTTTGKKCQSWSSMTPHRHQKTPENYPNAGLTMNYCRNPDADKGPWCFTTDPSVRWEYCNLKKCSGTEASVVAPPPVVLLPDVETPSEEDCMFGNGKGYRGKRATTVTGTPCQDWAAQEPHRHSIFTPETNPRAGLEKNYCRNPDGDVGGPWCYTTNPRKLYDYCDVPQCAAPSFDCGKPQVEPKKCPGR
T2 sequence (P03951 388-625 limits assumed): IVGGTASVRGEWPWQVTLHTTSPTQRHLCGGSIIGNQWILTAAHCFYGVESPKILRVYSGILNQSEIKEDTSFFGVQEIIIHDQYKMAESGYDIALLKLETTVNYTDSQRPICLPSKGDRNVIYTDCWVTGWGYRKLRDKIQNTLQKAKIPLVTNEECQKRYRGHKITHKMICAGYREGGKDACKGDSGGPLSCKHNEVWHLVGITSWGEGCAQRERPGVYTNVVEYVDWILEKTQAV
T2 sequence (P03951 19-387 partner limits assumed): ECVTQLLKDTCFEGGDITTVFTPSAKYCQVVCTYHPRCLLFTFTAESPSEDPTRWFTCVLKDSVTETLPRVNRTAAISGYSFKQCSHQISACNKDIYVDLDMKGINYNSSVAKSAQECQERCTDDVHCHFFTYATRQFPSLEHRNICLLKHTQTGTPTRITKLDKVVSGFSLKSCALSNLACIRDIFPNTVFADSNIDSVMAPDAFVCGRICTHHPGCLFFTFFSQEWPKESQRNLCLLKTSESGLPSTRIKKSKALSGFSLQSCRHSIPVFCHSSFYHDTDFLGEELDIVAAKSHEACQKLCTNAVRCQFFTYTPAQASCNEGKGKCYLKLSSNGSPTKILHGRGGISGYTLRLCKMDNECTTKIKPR

SMILES	IC50 (human kallekrein) [µM]	Calculated % Selectivity Kallikrein (human kallekrein) [%]	IC50 (human Factor XIa) [µM]	Calculated % Selectivity XIa (human Factor XIa) [%]	IC50 (Factor VIIa:rTF complex) [µM]	Calculated % Selectivity VIIa (Factor VIIa:rTF complex) [%]	Calculated % Selectivity Xa (human Factor Xa) [%]	IC50 (bovine thrombin; [5]) [µM]	Calculated % Selectivity Thrombin (bovine thrombin) [%]	Calculated % Selectivity Protein C [2] [%]	Calculated % Selectivity tPA [3] [%]	IC50 (human urokinase; [5]) [µM]	Calculated % Selectivity UK (human urokinase) [%]	IC50 (bovine trypsin) [µM]	Calculated % Selectivity Trypsin (bovine trypsin) [%]	IC50 (plasmin) [µM]	Calculated % Selectivity Plasmin (plasmin) [%]	IC50 (human Factor Xa; [5]) [µM]	IC50 [2, 5] [µM]	IC50 [3] [µM]	other results
CC(C)COC(=O)NC(CC(=O)O)C(=O)N1CCCC1C(=O)NC(C=O)CCCN=C(N)N [Compound 10, N-isobutyloxycarbonyl-L-Asp-L-Pro-L-argininal]	8	< 0.3	13	< 0.19	–	0	< 1.3	9	< 0.28	< 0.1	< 0.1	> 25	< 0.1	< 0.025	100	1.2	< 2	2	> 25	> 25	IC50 VIIA (Factor VIIa:rTF complex): Inact.
N=C(N)NCCC[C@@H](C=O)NC(=O)[C@@H]1CCCN1C(=O)[C@H](CC(=O)O)NC(=O)OC12CC3CC(CC(C3)C1)C2 [Compound 11, N-adamantyloxycarbonyl-L-AsP-L-Pro-L-argininal]	2	< 1.3	6	< 0.42	> 25	< 0.1	< 0.83	10	< 0.25	< 0.1	< 0.1	19	< 0.1	< 0.025	100	1.1	< 2	0.3	> 25	> 25	Ki [1]: 0.0002 µM
CN(C)C(=O)COC(=O)Cc1ccc(OC(=O)c2ccc(NC(=N)N)cc2)cc1.CS(=O)(=O)O [Foy-305, camostate]	–	–	–	–	–	–	–	–	–	–	–	–	–	–	–	–	–	–	–	–	efficacy in the treatment of acute pancreatitis induced in animal models [4]: effective to varying degrees
N=C(N)c1ccc2cc(OC(=O)c3ccc(N=C(N)N)cc3)ccc2c1 [Futhan, 6-amidino-2-naphthyl-4-guanidino benzoate dimethanesulfonate, reference compound]	< 0.025	–	< 0.025	–	1.2	–	–	0.21	–	–	–	–	–	< 0.025	–	–	–	6	0.084	0.37	efficacy in the treatment of acute pancreatitis induced in animal models [4]: effective

Further lines, with some results ahead:

IC50 (human kallekrein) [µM]	Calculated % Selectivity Kallikrein (human kallekrein) [%]	IC50 (human Factor XIa) [µM]	Calculated % Selectivity XIa (human Factor XIa) [%]	IC50 (Factor VIIa:rTF complex) [µM]	Calculated % Selectivity VIIa (Factor VIIa:rTF complex) [%]	Calculated % Selectivity Xa (human Factor Xa) [%]	IC50 (bovine thrombin; [5]) [µM]	Calculated % Selectivity Thrombin (bovine thrombin) [%]	Calculated % Selectivity Protein C [2] [%]	Calculated % Selectivity tPA [3] [%]	IC50 (human urokinase; [5]) [µM]	Calculated % Selectivity UK (human urokinase) [%]	IC50 (bovine trypsin) [µM]	Calculated % Selectivity Trypsin (bovine trypsin) [%]	IC50 (plasmin) [µM]	Calculated % Selectivity Plasmin (plasmin) [%]	IC50 (human Factor Xa; [5]) [µM]	IC50 [2, 5] [µM]	IC50 [3] [µM]	SMILES	other results
6	0.10	4	0.15	> 25	< 0.02	0	14	0.04	0	0	9	0.07	0.006	100	0.6	1	–	–	–	CC(C)(C)OC(=O)N[C@@H](CCC(=O)O)C(=O)N1CCC[C@H]1C(=O)N[C@H](C=O)CCCNC(=N)N [Compound 8, N-t-butyloxycarbonyl-L-Glu-L-Pro-L-argininal] (Boc-Glu-Pro-Arg-aldehyde)	Ki [1]: 0.0014 µM; IC50 Xa (human Factor Xa; [5]): Inact.; IC50 Protein C [2, 5]: Inact.; IC50 tPA [3]: Inact.
> 25	< 0.34	> 25	< 0.34	–	0	< 0.34	–	0	< 0.3	< 0.3	17	0.5	0.084	100	1.2	7	> 25	> 25	> 25	CC(C)(C)OC(=O)N[C@H](CC(=O)O)C(=O)N1CCC[C@H]1C(=O)N[C@H](C=O)CCCNC(=N)N [Compound 12, N-t-buyloxycarbonyl-D-Asp-L-Pro-L-argininal] (Boc-[dD]-Pro-Arg-aldehyde)	Ki [1]: 0.045 µM; IC50 VIIA (Factor VIIa:rTF complex): Inact.; IC50 Thrombin (bovine thrombin; [5]): Inact.
4	–	11	–	> 25	–	–	20	–	–	–	–	–	1.7	–	8	–	25	> 25	–	CC(=O)N[C@@H](CC(C)C)C(=O)N[C@@H](CC(C)C)C(=O)N[C@H](C=O)CCCNC(=N)N [Leupeptin, reference compound]	IC50 tPA [3]: Inact.; IC50 UK (human urokinase; [5]): Inact.

From US5534498A, “Trypsin inhibitors” (Corvas International, Inc., priority 1993, dated 1996)
